Assays:
[1] = molecular target: T1, human adenosine A2A receptor (Homo sapiens, UniProt P29274); assay: Radioligand displacement assay, human adenosine A2A receptor ([3H]ZM241385, HEK293hA2AR membranes); format: binding; conditions: n = 3
T1 construct: expressed in transfected cells; host or cells: HEK293 cells (HEK293hA2AR), from Dr. J. Wang (Biogen/IDEC); membrane preparation
Procedure: Human embryonic kidney 293 cells stably expressing the human adenosine A2A receptor (HEK293hA2AR) were kindly provided by Dr. J. Wang (Biogen/IDEC, Cambridge, MA, USA), CHO-spap cells stably expressing the wild-type (WT) hA2B receptor (CHO-spap-hA2BR) were kindly provided by S. J. Dowell (GlaxoSmithKline, Brentfort, UK).
All cells were grown to 80–90% confluency and detached from plates by scraping them into 5 mL phosphate-buffered saline. Detached cells were collected and centrifuged at 200 g for 5 min. Pellets derived from 100 15 cm Ø plates were pooled and resuspended in 70 mL of ice-cold 50 mM tris(hydroxymethyl)aminomethane (Tris)-HCl buffer, pH 7.4. A Heidolph Diax 900 homogenizer was used to homogenize the cell suspension. Membranes and the cytosolic fraction were separated by centrifugation at 100,000 g in a Beckman Optima LE-80 K ultracentrifuge (Beckman Coulter, Fullerton, CA, USA) at 4 °C for 20 min. The pellet was resuspended in 35 mL of the Tris-HCl buffer, and the homogenization and centrifugation steps were repeated. Tris-HCl buffer (25 mL) was used to resuspend the pellet, and adenosine deaminase (ADA) was added (0.8 U/mL) to break down endogenous adenosine. Membranes were stored in 250 µL and 500 µL aliquots at −80 °C. Total protein concentrations were measured using the bicinchoninic acid (BCA) method.
(§1) Nonspecific binding was determined in the presence of 100 µM adenosine-5-N-ethyluronamide (NECA). Incubations were terminated by rapid vacuum filtration to separate the bound and free radioligand through prewetted 96-well GF/B filter plates using a PerkinElmer Filtermate-harvester (Perkin Elmer, Groningen, The Netherlands). Filters were subsequently washed 12 times with ice-cold 50 mM Tris-HCl, pH 7.4.
The plates of all four adenosine receptor assays were dried at 55 °C after which MicroscintTM-20-cocktail was added (Perkin Elmer, Groningen, The Netherlands).
All experimental data were analyzed using the non-linear regression curve fitting program GraphPad Prism 7.0 (GraphPad Software Inc., San Diego, CA, USA). IC50 values obtained from competition displacement binding data were converted into Ki values using the Cheng–Prusoff equation.

P1 receptor = P1 receptor binding studies (A1, A2A, A2B and A3), overall statement; set-up: species or system human; conditions: all four subtypes
Procedure: as §1, with “A1 Receptor: Membrane aliquots containing 5 µg (CHOhA1R) protein were incubated in a total volume of 100 µL assay buffer (50 mM Tris-HCl, pH 7.4) at 25 °C for 1 h. […] Nonspecific” for “Nonspecific”, “N^6-cyclopentyladenosine (CPA).” for “adenosine-5-N-ethyluronamide (NECA).”, “the” for “The”
as §1
A2B Receptor: Membrane aliquots containing 30 µg (CHO-spap-hA2BR) total protein were incubated in a total volume of 100 µL assay buffer (0.1% CHAPS in 50 mM TrisHCl, pH 7.4) at 25 °C for 2 h. […] Nonspecific binding was determined in the presence of 10 µM ZM241385. Incubations were terminated by rapid vacuum filtration to separate the bound and free radioligand through prewetted 96-well GF/B filter plates using a PerkinElmer Filtermate-harvester (Perkin Elmer, Groningen, the Netherlands). Filters were subsequently washed 12 times with ice-cold 0.1% BSA in 50 mM Tris-HCl, pH 7.4.
A3 Receptor: Membrane aliquots containing 15 µg (CHOhA3R) total protein were incubated in a total volume of 100 µL assay buffer (50 mM Tris-HCl, pH 8.0, supplemented with 10 mM MgCl2, 1 mM EDTA and 0.01% (w/v) CHAPS) at 25 °C for 2 h. […] Nonspecific binding was determined in the presence of 100 µM NECA. […]
All experimental data were analyzed using the non-linear regression curve fitting program GraphPad Prism 7.0 (GraphPad Software Inc., San Diego, CA, USA). […]

T1 sequence (P29274 whole entry): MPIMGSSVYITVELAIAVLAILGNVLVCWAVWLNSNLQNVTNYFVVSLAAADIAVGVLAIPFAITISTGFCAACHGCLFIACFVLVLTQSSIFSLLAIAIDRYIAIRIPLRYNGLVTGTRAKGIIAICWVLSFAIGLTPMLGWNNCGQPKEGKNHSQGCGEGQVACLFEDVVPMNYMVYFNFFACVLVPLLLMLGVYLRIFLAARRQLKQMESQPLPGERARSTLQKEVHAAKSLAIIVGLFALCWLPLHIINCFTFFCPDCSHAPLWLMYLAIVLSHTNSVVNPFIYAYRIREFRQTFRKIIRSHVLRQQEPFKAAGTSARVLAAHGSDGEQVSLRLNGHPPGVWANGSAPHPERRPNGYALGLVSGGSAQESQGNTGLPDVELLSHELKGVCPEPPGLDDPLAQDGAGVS

Row | Ki ([1]; [3H]ZM241385, read-out: A2A Ki ± SEM) [µM] | P1 receptor affinity (P1 receptor) | A2A displacement at 10 µM ([1]; test compound 10 µM) [%] | SMILES
1 | > 10 | no P1 receptor affinity |  | OC[C@@]12C[C@@H]1[C@@H](n1cnc3c(Cl)cc(Cl)nc31)[C@H](O)[C@@H]2O [Compound 12, (1R,2R,3S,4R,5S)-4-(5,7-Dichloro-3H-imidazo[4,5-b]pyridin-3-yl)-1-(hydroxymethyl)bicyclo[3.1.0]hexane-2,3-diol]
2 |  | loss of P1 receptor affinity | 3 | CSc1cc(N)c2ncn([C@H]3[C@H](O)[C@H](O)[C@]4(CO)C[C@H]34)c2n1 [Compound 17, (1R,2R,3S,4R,5S)-4-(7-Amino-5-methylthio-3H-imidazo[4,5-b]pyridin-3-yl)-1-(hydroxymethyl)bicyclo[3.1.0]hexane-2,3-diol]

Reference: article PMC9000336, “Development of Bicyclo[3.1.0]hexane-Based A3 Receptor Ligands: Closing the Gaps in the Structure–Affinity Relationships” (Molecules, 2022)
